In assay [1] the target is CRBN-DDB1 (Homo sapiens (Human), UniProt Q96SW2). As to the kind of experiment: CRBN HTRF assay (Cy5-Thalidomide probe displacement). The assay is classed as binding. Particulars: CRBN-DDB1 2.5 nM, Cy5-Thalidomide 100 nM, 30 min; Ki from geometric mean IC50 by Cheng-Prusoff. The essentials:
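HTRF displacement of Cy5-thalidomide probe (100 nM) from His-CRBN-DDB1 (2.5 nM) with anti-His terbium cryptate, in HEPES/NaCl/TCEP/EDTA/Tween20 buffer. 10-point 1:3 compound series, 30 min at ambient temperature; signal normalised to DMSO and lenalidomide controls, IC50 fitted and Ki derived by Cheng-Prusoff.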
In general terms: Time-resolved FRET reads energy transfer from a long-lived donor to a nearby acceptor.

The target in assay [2] is CDK2 (Homo sapiens (Human), UniProt P24941). As to the kind of experiment: CDK2 NanoBiT assay (HiBiT-tagged CDK2 degradation). The assay is classed as cell-based. Conditions: HEK293, HEK293 clonal line, C-terminal HiBiT tag on CDK2, LgBiT; 24 hours. The essentials: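 HEK293 line with CRISPR knock-in C-terminal HiBiT-tagged CDK2 and stable LgBiT, preincubated 16 h with live-cell substrate, then compound-treated 24 h at 37° C, 5% CO2 (30 μM stock). Luminescence normalized to plate negative and positive controls; EC50 from 3-parameter logistic fit, Hill slope 1.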
(In general: HiBiT is a short tag that completes a luciferase, so light tracks the accessible tagged protein.)

Chain of CRBN-DDB1 (Q96SW2 whole entry): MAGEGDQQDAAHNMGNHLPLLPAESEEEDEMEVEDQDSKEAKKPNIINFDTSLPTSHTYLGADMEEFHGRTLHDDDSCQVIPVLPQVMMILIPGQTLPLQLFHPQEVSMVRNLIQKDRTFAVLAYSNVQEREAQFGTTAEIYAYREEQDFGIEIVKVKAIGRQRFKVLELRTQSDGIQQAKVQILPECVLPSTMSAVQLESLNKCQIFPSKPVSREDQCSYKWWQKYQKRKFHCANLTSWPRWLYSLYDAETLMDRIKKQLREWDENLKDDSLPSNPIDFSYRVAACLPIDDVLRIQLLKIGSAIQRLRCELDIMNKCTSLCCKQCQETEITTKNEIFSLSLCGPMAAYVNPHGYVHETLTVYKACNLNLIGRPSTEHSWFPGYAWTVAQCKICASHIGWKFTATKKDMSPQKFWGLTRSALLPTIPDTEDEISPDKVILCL
Chain of CRBN-DDB1 (Q16531 whole entry partner): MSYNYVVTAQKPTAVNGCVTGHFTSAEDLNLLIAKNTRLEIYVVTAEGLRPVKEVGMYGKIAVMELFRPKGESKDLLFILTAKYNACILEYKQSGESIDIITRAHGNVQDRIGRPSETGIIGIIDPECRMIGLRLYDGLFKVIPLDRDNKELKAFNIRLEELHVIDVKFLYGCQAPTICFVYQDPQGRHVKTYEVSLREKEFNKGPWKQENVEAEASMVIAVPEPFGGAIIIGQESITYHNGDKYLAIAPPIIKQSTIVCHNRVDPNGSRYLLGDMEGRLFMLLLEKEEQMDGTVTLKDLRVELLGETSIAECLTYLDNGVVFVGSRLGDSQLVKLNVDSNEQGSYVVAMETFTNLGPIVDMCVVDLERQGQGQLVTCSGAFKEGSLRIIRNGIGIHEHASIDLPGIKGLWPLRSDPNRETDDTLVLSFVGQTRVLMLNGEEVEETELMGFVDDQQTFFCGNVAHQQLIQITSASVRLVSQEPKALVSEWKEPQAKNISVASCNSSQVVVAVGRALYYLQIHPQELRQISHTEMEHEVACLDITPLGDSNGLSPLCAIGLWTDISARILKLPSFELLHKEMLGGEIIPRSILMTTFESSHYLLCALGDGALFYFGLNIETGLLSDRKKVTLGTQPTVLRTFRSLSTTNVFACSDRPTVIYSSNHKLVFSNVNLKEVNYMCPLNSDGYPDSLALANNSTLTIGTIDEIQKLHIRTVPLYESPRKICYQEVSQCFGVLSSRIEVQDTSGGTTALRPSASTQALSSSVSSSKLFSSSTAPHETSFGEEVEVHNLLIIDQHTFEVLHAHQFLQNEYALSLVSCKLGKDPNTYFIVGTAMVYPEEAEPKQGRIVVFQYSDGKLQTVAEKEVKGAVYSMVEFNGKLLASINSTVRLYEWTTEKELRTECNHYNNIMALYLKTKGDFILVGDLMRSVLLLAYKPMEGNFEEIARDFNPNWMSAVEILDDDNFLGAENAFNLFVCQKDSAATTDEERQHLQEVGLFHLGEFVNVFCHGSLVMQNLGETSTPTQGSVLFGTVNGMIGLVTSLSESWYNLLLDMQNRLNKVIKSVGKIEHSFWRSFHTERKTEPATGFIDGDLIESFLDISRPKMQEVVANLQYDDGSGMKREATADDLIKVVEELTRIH

In the case of `C[C@H]1CC[C@H](COC(=O)NC2CN(c3cc(F)c(C4CCC(=O)NC4=O)c(F)c3)C2)CC1` (stereo partly shown) [Compound 52, ((1r, 4r)-4-methylcyclohexyl)methyl (1-(4-(2,6-dioxopiperidin-3-yl)-3,5-difluorophenyl)azetidin-3-yl)carbamate], the inhibition constant (Ki) in assay [1] was no more than 100 nM. In assay [2], this compound displayed a Dmax greater than 80%.
The corresponding values for `CC(C)(C)O[C@H]1C[C@@H](OC(=O)NC2CN(c3cc(F)c(C4CCC(=O)NC4=O)c(F)c3)C2)C1` (stereo partly shown) [Compound 46, (1s, 3s)-3-(tert-butoxy)cyclobutyl (1-(4-(2,6-dioxopiperidin-3-yl)-3,5-difluorophenyl)azetidin-3-yl)carbamate] are no more than 100 nM and 50 to 80%.
The like results for `CC(C)(CCOC(=O)NC1CN(c2cc(F)c(C3CCC(=O)NC3=O)c(F)c2)C1)C1CC1` (stereo not shown) [Compound 65, 3-cyclopropyl-3-methylbutyl (1-(4-(2,6-dioxopiperidin-3-yl)-3,5-difluorophenyl)azetidin-3-yl)carbamate] were, in that order, no more than 100 nM and greater than 80%.
In turn, `O=C1CC[C@@H](c2c(F)cc(N3CC[C@@H](NC(=O)OCC4CC5(CCC5)C4)C3=O)cc2F)C(=O)N1` [Compound 55, spiro[3.3]heptan-2-ylmethyl ((R)-1-(4-((S)-2,6-dioxopiperidin-3-yl)-3,5-difluorophenyl)-2-oxopyrrolidin-3-yl)carbamate] yielded a Ki in assay [1] of 100 to 1000 nM. Moreover, the Dmax in assay [2] fell in the range of 50 to 80%.
`O=C1CCC(c2c(F)cc(N3CC(Nc4nnc(-c5ccccc5)o4)C3)cc2F)C(=O)N1` (stereo not shown) [Compound 104, 3-(2,6-difluoro-4-(3-((5-phenyl-1,3,4-oxadiazol-2-yl)amino)azetidin-1-yl)phenyl)piperidine-2,6-dione]: the Ki in assay [1] was no more than 100 nM. In assay [2], this compound registered a Dmax greater than 80%.
The like results for `O=C1CCC(c2c(F)cc(N3CC(NC(=O)OC4CN(C(=O)N5CCC5)C4)C3)cc2F)C(=O)N1` (stereo not shown) [Compound 30, 1-(azetidine-1-carbonyl)azetidin-3-yl (1-(4-(2,6-dioxopiperidin-3-yl)-3,5-difluorophenyl)azetidin-3-yl)carbamate] were, in that order, no more than 100 nM and 50 to 80%.
`CC1(NC(=O)OCC2CC3(CCC3)C2)CN(c2cc(F)c(C3CCC(=O)NC3=O)c(F)c2)C1` (stereo not shown) [Compound 56, spiro[3.3]heptan-2-ylmethyl (1-(4-(2,6-dioxopiperidin-3-yl)-3,5-difluorophenyl)-3-methylazetidin-3-yl)carbamate] displayed a Ki in assay [1] of no more than 100 nM. Besides, in assay [2], the Dmax is greater than 80%.
Compound `CN(C(=O)N1CC[C@H](OC(=O)NC2CN(c3cc(F)c(C4CCC(=O)NC4=O)c(F)c3)C2)C1)C1CC1` (stereo partly drawn) [Compound 16, (S)-1-(cyclopropyl(methyl)carbamoyl)pyrrolidin-3-yl (1-(4-(2,6-dioxopiperidin-3-yl)-3,5-difluorophenyl)azetidin-3-yl)carbamate] displayed a Ki in assay [1] of no more than 100 nM. For the same compound, the Dmax in assay [2] was in the range of 10 to 50%.
Turning to `Cc1cc(N2CC(NC(=O)OC3CN(C(=O)N(C)C4CC4)C3)C2)cc(F)c1C1CCC(=O)NC1=O` (stereo not shown) [Compound 15, 1-(cyclopropyl(methyl)carbamoyl)azetidin-3-yl (1-(4-(2,6-dioxopiperidin-3-yl)-3-fluoro-5-methylphenyl)azetidin-3-yl)carbamate], the Ki in assay [1] is no more than 100 nM. Further, the greatest degradation seen (Dmax) in assay [2] was 50 to 80%.
In assay [1], `N#Cc1ccc(C(=O)N2CC(OC(=O)NC3CN(c4cc(F)c(C5CCC(=O)NC5=O)c(F)c4)C3)C2)cc1` (stereo not shown) [Compound 20, 1-(4-cyanobenzoyl)azetidin-3-yl (1-(4-(2,6-dioxopiperidin-3-yl)-3,5-difluorophenyl)azetidin-3-yl)carbamate] gave an inhibition constant (Ki) of no more than 100 nM. The Dmax in assay [2] fell in the range of 10 to 50%.
Take `Cc1ccccc1N(C)C(=O)N1CC(OC(=O)NC2CN(c3cc(F)c(C4CCC(=O)NC4=O)c(F)c3)C2)C1` (stereo not shown) [Compound 70, 1-(methyl(o-tolyl)carbamoyl)azetidin-3-yl (1-(4-(2,6-dioxopiperidin-3-yl)-3,5-difluorophenyl)azetidin-3-yl)carbamate]: the Ki in assay [1] was no more than 100 nM. Besides, the Dmax in assay [2] was in the range of 50 to 80%.

Usually Ki stands for the equilibrium dissociation constant of an inhibitor or competing ligand from its target. The term Dmax denotes the largest share of the target that was removed. Read a high Dmax as a fuller loss of target.

The record behind these values is patent publication US20250263395A1, “COMPOUNDS THAT MEDIATE PROTEIN DEGRADATION AND METHODS OF USE THEREOF” (Monte Rosa Therapeutics AG, priority 2022, published 2025).
